The source of these data is paper PMC9347360 (RSC Chemical Biology, 2022).

The term Kd denotes the concentration at which binding is half-saturated.

In one assay the target is T1, wild type BRD1-BD (Homo sapiens, UniProt O95696).
T1 sequence (O95696 562-666 limits assumed): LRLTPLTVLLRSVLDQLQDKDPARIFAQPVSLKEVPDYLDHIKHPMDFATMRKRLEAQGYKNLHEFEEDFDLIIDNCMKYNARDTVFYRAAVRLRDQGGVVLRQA
Put plainly: ITC binding to wild type BRD1 bromodomain.

Assay [1] deals with BRD4-BD1. Put plainly: ITC binding to BRD4-BD1. The settings on record: BRD4-BD1 Kd (ref 36) compared to that of BRD1-BD.
Assay [2] deals with BRD4-BD1. The settings on record: as measured previously; cited from earlier work.

Where a SMILES comes first, the peptide text is derived from it.

As for `CC(=O)NCCCC[C@H](NC(=O)CNC(=O)[C@H](C)NC(=O)[C@H](C)NC(=O)[C@H](CCCCNC(C)=O)NC(=O)[C@H](C)N)C(=O)N[C@@H](CC(C)C)C(=O)N[C@@H](CCCCNC(C)=O)C(=O)N[C@@H](C)C(N)=O` [peptide 6] (H-AK(Ac)AAGK(Ac)LK(Ac)A-NH2), the Kd was 24.5 ± 11.7 µM on wild type BRD1-BD and 353 µM at BRD4-BD1 [2]. Besides, the “Kd for BRD4-BD1 relative to BRD1-BD (fold higher)” value on BRD4-BD1 [1] is “about 15 fold”.
